21 compounds from US20230107642A1 (Erasca, Inc., priority 2020, published 2023) can be followed below.

The test concerns the target T1, K-Ras G12C (Homo sapiens, UniProt P01116, G12C).
T1 construct: This protein contained 188 amino acids in total, including an N-terminal 6-Histidine tag; made in house; host or cells: E. coli BL21
Briefly: CAF assay (% CAF; method in Example 7, not in this part). It is filed as binding. The conditions noted are these: 10 uM compound, 1 h incubation.
As to `C=CC(=O)N1CCN(c2nc(=O)n3c4c(c(-c5ccc(F)cc5)c(C(F)(F)F)cc24)SC[C@@H]3CC2CCN(C3COC3)CC2)[C@@H](C)C1` [Example 425, (S)-7-((S)-4-acryloyl-2-methylpiperazin-1-fluorophenyl)-3-((1-(oxetan-3-yl)piperidin-4-yl)methyl)-9-(trifluoromethyl)-2H-[1,4]thiazino[2,3,4-ij]quinazolin-5(3H)-one], the “% CAF @ 10 uM, 1h” value is reported as 94.7%.

With `C=CC(=O)N1CCN(c2nc(=O)n3c4c(c(-c5cc(Cl)c(F)cc5F)c(Cl)cc24)SC[C@@H]3CC2CCN(C3COC3)CC2)[C@@H](C)C1` [Example 426, (3S)-7-((S)-4-acryloyl-2-methylpiperazin-1-yl)-9-chloro-10-(5-chloro-2,4-difluorophenyl)-3-((1-(oxetan-3-yl)piperidin-4-yl)methyl)-2H-[1,4]thiazino[2,3,4-ij]quinazolin-5(3H)-one], the “% CAF @ 10 uM, 1h” value is on record as 82.8%. On to `C=CC(=O)N1CCN(c2nc(=O)n3c4c(c(-c5ccc(F)cc5Cl)c(Cl)cc24)SCC3)[C@@H](C)C1` [Example 427, 7-((S)-4-acryloyl-2-methylpiperazin-1-yl)-9-chloro-10-(2-chloro-4-fluorophenyl)-2,3-dihydro-5H-[1,4]thiazino[2,3,4-ij]quinazolin-5-one], for which the “% CAF @ 10 uM, 1h” value came to 63.5%. For `C=CC(=O)N1CCN(c2nc(=O)n3c4c(c(-c5ccc(F)cc5)c(C(F)(F)F)cc24)SC[C@@H]3CC2CCN(CC(F)F)CC2)[C@@H](C)C1` [Example 428, (S)-7-((S)-4-acryloyl-2-methylpiperazin-1-yl)-3-((1-(2,2-difluoroethyl)piperidin-4-yl)methyl)-10-(4-fluorophenyl)-9-(trifluoromethyl)-2H-[1,4]thiazino[2,3,4-ij]quinazolin-5(3H)-one], the “% CAF @ 10 uM, 1h” value amounted to 79.6%.

On to `C=CC(=O)N1CCN(c2nc(=O)n3c4c(c(-c5ccc(F)cc5F)c(C(F)(F)F)cc24)S(=O)(=O)C[C@@H]3CC2CCN(CC(F)F)CC2)[C@@H](C)C1` [Example 429, (3S)-7-((S)-4-acryloyl-2-methylpiperazin-1-yl)-3-((1-(2,2-difluoroethyl)piperidin-4-yl)methyl)-10-(2,4-difluorophenyl)-9-(trifluoromethyl)-2H-[1,4]thiazino[2,3,4-ij]quinazolin-5(3H)-one 1,1-dioxide], for which the “% CAF @ 10 uM, 1h” value stood at 61%. `C=CC(=O)N1CCN(c2nc(=O)n3c4c(c(-c5ccc(F)cc5)c(C(F)(F)F)cc24)SC[C@@H]3CN2CCn3c(nnc3C(F)(F)F)C2)[C@@H](C)C1` [Example 430, (S)-7-((S)-4-acryloyl-2-methylpiperazin-1-yl)-10-(4-fluorophenyl)-9-(trifluoromethyl)-3-((3-(trifluoromethyl)-5,6-dihydro-[1,2,4]triazolo[4,3-a]pyrazin-7(8H)-yl)methyl)-2H-[1,4]thiazino[2,3,4-ij]quinazolin-5(3H)-one]: the “% CAF @ 10 uM, 1h” value was determined as 90.9%. Regarding `C=CC(=O)N1CCN(c2nc(=O)n3c4c(c(-c5ccc(F)cc5F)c(C(F)(F)F)cc24)SC[C@@H](O)C3)[C@@H](C)C1` [Example 431, (3S)-8-((S)-4-acryloyl-2-methylpiperazin-1-yl)-11-(2,4-difluorophenyl)-3-hydroxy-10-(trifluoromethyl)-3,4-dihydro-2H,6H-[1,4]thiazepino[2,3,4-ij]quinazolin-6-one], the “% CAF @ 10 uM, 1h” value worked out at 90%. In the case of `C=CC(=O)N1CCN(c2nc(=O)n3c4c(c(-c5ccc(F)cc5F)c(Cl)cc24)SC[C@H]3COC2CN(CC)C2)[C@@H](C)C1` [Example 432, (3R)-7-((S)-4-acryloyl-2-methylpiperazin-1-yl)-9-chloro-10-(2,4-difluorophenyl)-3-(((1-ethylazetidin-3-yl)oxy)methyl)-2,3-dihydro-5H-[1,4]thiazino[2,3,4-ij]quinazolin-5-one] it was 2.6%. Regarding `C=CC(=O)N1CCN(c2nc(=O)n3c4c(c(-c5ccc(F)cc5F)c(Cl)cc24)SC2(CC2)C3)[C@@H](C)C1` [Example 433, 7′-((S)-4-acryloyl-2-methylpiperazin-1-yl)-9′-chloro-10′-(2,4-difluorophenyl)-3′H,5′H-spiro[cyclopropane-1,2′-[1,4]thiazino[2,3,4-ij]quinazolin]-5′-one], the “% CAF @ 10 uM, 1h” value was determined as 25.3%.

Turning to `C=CC(=O)N1CCN(c2nc(=O)n3c4c(c(-c5ccc(F)cc5F)c(C(F)(F)F)cc24)S(=O)(=O)C[C@@H]3CC2CCN(CC)CC2)[C@@H](C)C1` [Example 434, (3S)-7-((S)-4-acryloyl-2-methylpiperazin-1-yl)-10-(2,4-difluorophenyl)-3-((1-ethylpiperidin-4-yl)methyl)-9-(trifluoromethyl)-2H-[1,4]thiazino[2,3,4-ij]quinazolin-5(3H)-one 1,1-dioxide], the “% CAF @ 10 uM, 1h” value is 51.5%. With `C=CC(=O)N1CCN(c2nc(=O)n3c4c(c(-c5ccc(F)cc5F)c(C(F)(F)F)cc24)SC[C@@H]3COC)[C@@H](C)C1` [Example 435, (3S)-7-((S)-4-acryloyl-2-methylpiperazin-1-yl)-10-(2,4-difluorophenyl)-3-(methoxymethyl)-9-(trifluoromethyl)-2H-[1,4]thiazino[2,3,4-ij]quinazolin-5(3H)-one], the “% CAF @ 10 uM, 1h” value amounted to 95.8%. Regarding `C=CC(=O)N1CCN(c2nc(=O)n3c4c(c(-c5ccc(F)cc5F)c(C(F)(F)F)cc24)S(=O)(=O)C[C@@H]3COC)[C@@H](C)C1` [Example 436, (3S)-7-((S)-4-acryloyl-2-methylpiperazin-1-yl)-10-(2,4-difluorophenyl)-3-(methoxymethyl)-9-(trifluoromethyl)-2H-[1,4]thiazino[2,3,4-ij]quinazolin-5(3H)-one 1,1-dioxide], the “% CAF @ 10 uM, 1h” value was found to be 72.5%. Turning to `C=CC(=O)N1CCN(c2nc(=O)n3c4c(c(-c5ccc(F)cc5F)c(C(F)(F)F)cc24)SC[C@@H]3CC2CCOCC2)[C@@H](C)C1` [Example 437, (3S)-7-((S)-4-acryloyl-2-methylpiperazin-1-yl)-10-(2,4-difluorophenyl)-3-((tetrahydro-2H-pyran-4-yl)methyl)-9-(trifluoromethyl)-2H-[1,4]thiazino[2,3,4-ij]quinazolin-5(3H)-one], the “% CAF @ 10 uM, 1h” value was 95.7%. The same measure for `C=CC(=O)N1CCN(c2nc(=O)n3c4c(c(-c5ccc(F)cc5F)c(Cl)cc24)SC[C@@H]3CC2CCOCC2)[C@@H](C)C1` [Example 438, (3S)-7-((S)-4-acryloyl-2-methylpiperazin-1-yl)-9-chloro-10-(2,4-difluorophenyl)-3-((tetrahydro-2H-pyran-4-yl)methyl)-2H-[1,4]thiazino[2,3,4-ij]quinazolin-5(3H)-one]: 92.8%. Consider `O=C1CC2CN(c3nc(=O)n4c5c(c(-c6ccc(F)cc6F)c(C(F)(F)F)cc35)SCC4)CC(C1)N2C(=O)/C=C/C(F)F` [Example 439, (E)-7-(9-(4,4-difluorobut-2-enoyl)-7-oxo-3,9-diazabicyclo[3.3.1]nonan-3-yl)-10-(2,4-difluorophenyl)-9-(trifluoromethyl)-2,3-dihydro-5H-[1,4]thiazino[2,3,4-ij]quinazolin-5-one], for which the “% CAF @ 10 uM, 1h” value was found to be 97%.

Take `O=C1CC2CN(c3nc(=O)n4c5c(c(-c6ccc(F)cc6F)c(C(F)(F)F)cc35)SCC4)CC(C1)N2C(=O)/C=C/C(F)(F)F` [Example 440, (E)-10-(2,4-difluorophenyl)-7-(7-oxo-9-(4,4,4-trifluorobut-2-enoyl)-3,9-diazabicyclo[3.3.1]nonan-3-yl)-9-(trifluoromethyl)-2,3-dihydro-5H-[1,4]thiazino[2,3,4-ij]quinazolin-5-one]: the “% CAF @ 10 uM, 1h” value amounted to 96%. For `C=CC(=O)N1CCN(c2nc(=O)n3c4c(c(-c5ccc(F)c6cccnc56)c(Cl)cc24)SCC3)[C@@H](C)C1` [Example 441, 7-((S)-4-acryloyl-2-methylpiperazin-1-yl)-9-chloro-10-(5-fluoroquinolin-8-yl)-2,3-dihydro-5H-[1,4]thiazino[2,3,4-ij]quinazolin-5-one], the “% CAF @ 10 uM, 1h” value came out at 78.5%. Turning to `C=CC(=O)N1CCN(c2nc(=O)n3c4c(c(-c5ccc(F)cc5F)c(C(F)(F)F)cc24)S[C@@H](CN(C)C)C3)[C@@H](C)C1` [Example 442, (2S)-7-((S)-4-acryloyl-2-methylpiperazin-1-yl)-10-(2,4-difluorophenyl)-2-((dimethylamino)methyl)-9-(trifluoromethyl)-2,3-dihydro-5H-[1,4]thiazino[2,3,4-ij]quinazolin-5-one], the “% CAF @ 10 uM, 1h” value was found to be 87%. Regarding `C=CC(=O)N1C[C@H](C)N(c2nc(=O)n3c4c(c(-c5cc(F)c(F)cc5F)c(C(F)(F)F)cc24)SC[C@@H]3CN2CCN(CC(F)F)CC2)C[C@H]1C` [Example 443, (3S)-7-((2S,5R)-4-acryloyl-2,5-dimethylpiperazin-1-yl)-3-((4-(2,2-difluoroethyl)piperazin-1-yl)methyl)-9-(trifluoromethyl)-10-(2,4,5-trifluorophenyl)-2H-[1,4]thiazino[2,3,4-ij]quinazolin-5(3H)-one], the “% CAF @ 10 uM, 1h” value was found to be 48.2%. Take `C=CC(=O)N1CCN(c2nc(=O)n3c4c(c(-c5ccc(F)cc5)c(Cl)cc24)SC[C@@H]3CN2CCn3c(nnc3C(F)(F)F)C2)[C@@H](C)C1` [Example 444, (S)-7-((S)-4-acryloyl-2-methylpiperazin-1-yl)-9-chloro-10-(4-fluorophenyl)-3-((3-(trifluoromethyl)-5,6-dihydro-[1,2,4]triazolo[4,3-a]pyrazin-7(8H)-yl)methyl)-2H-[1,4]thiazino[2,3,4-ij]quinazolin-5(3H)-one]: the “% CAF @ 10 uM, 1h” value came to 24.1%. Turning to `C=CC(=O)N1C[C@H](C)N(c2nc(=O)n3c4c(c(-c5ccc(F)cc5)c(Cl)cc24)SC[C@@H]3CN2CCn3c(nnc3C(F)(F)F)C2)C[C@H]1C` [Example 445, (S)-7-((2S,5R)-4-acryloyl-2,5-dimethylpiperazin-1-yl)-9-chloro-10-(4-fluorophenyl)-3-((3-(trifluoromethyl)-5,6-dihydro-[1,2,4]triazolo[4,3-a]pyrazin-7(8H)-yl)methyl)-2H-[1,4]thiazino[2,3,4-ij]quinazolin-5(3H)-one], the “% CAF @ 10 uM, 1h” value was determined as 68.2%.
